Drawing on paper PMC2065875, “A Point Mutation in a Herpesvirus Polymerase Determines Neuropathogenicity” (PLoS Pathogens, 2007), this text covers IC50 for one substance.

Usually IC50 stands for the point on the concentration scale where inhibition reaches its midpoint.

For assay [1], the target named is T1, EHV-1 Pol D752 + pORF18 (viral DNA polymerase holoenzyme) (Equine herpesvirus type 1 (strain AB4P), UniProt P28858).
T1 construct: gene 30; Pol (D752) from pTM1-ORF30 made by in vitro transcription-translation (TNT T7 coupled reticulocyte lysate, not purified); pORF18 purified, baculovirus-expressed; with DNA polymerase processivity factor
T1 sequence (P28958 whole entry): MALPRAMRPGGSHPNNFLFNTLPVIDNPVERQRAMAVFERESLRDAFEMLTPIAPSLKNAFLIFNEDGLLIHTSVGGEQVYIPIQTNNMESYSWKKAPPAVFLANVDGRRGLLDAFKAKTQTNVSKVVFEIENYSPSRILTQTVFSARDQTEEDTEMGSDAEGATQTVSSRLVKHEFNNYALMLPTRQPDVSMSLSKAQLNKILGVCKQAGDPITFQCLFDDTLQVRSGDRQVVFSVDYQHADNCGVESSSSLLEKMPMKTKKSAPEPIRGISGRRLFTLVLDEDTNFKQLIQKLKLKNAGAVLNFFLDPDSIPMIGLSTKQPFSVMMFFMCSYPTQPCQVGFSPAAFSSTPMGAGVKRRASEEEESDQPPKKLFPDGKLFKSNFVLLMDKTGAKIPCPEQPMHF
T1 sequence (P28858 whole entry): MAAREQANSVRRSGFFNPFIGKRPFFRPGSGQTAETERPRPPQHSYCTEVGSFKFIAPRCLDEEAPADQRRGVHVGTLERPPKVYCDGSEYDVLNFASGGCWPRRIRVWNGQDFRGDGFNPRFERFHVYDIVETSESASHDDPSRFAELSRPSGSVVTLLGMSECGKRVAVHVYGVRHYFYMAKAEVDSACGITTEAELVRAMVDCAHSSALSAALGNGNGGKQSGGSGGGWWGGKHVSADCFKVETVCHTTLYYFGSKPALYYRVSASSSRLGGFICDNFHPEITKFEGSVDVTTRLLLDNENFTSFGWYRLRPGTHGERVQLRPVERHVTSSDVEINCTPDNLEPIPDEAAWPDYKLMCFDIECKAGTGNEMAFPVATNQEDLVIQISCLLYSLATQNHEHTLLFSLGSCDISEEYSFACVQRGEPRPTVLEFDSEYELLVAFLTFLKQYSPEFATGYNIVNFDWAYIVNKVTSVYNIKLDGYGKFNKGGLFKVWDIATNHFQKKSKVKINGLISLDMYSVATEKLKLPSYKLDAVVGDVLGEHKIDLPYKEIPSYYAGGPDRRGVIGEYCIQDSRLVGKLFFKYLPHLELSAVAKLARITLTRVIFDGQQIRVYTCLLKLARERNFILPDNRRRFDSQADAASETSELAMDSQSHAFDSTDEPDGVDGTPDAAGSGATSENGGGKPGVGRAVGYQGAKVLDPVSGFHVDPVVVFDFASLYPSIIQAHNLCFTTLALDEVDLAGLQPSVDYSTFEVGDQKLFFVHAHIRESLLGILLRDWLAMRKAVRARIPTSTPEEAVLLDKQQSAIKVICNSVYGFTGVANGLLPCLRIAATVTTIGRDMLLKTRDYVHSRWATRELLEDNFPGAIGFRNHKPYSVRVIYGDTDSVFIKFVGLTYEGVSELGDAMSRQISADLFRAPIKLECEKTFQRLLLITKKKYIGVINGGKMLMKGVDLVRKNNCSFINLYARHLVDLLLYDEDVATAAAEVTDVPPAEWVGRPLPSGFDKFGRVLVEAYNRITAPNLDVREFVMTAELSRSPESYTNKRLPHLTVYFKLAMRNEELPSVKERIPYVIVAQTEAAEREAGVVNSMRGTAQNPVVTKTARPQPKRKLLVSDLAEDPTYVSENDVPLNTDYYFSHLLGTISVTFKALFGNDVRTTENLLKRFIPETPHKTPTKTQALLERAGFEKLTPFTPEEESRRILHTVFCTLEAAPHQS
The assay can be described thus: [3H]dTTP incorporation into poly(dA)-oligo(dT), in vitro translated Pol. Format: biochemical. The conditions noted are these: poly(dA)-oligo(dT) template, 4 μl translated Pol plus 200 fmol pORF18 in 20 μl, 0.5% DMSO.

The target of assay [2] is T2, EHV-1 Pol D752 + pORF18 (viral DNA polymerase holoenzyme) (Equine herpesvirus type 1 (strain AB4P), UniProt P28858, D752N).
T2 construct: gene 30
T2 sequence (P28858 whole entry, stated change not applied): as the sequence (P28858 whole entry) above
T2 sequence (P28958 whole entry, stated change not applied, further chain): as the sequence (P28958 whole entry) above
The settings on record: poly(dA)-oligo(dT) template, [3H]dTTP; 4 μl translated Pol plus 200 fmol pORF18 in 20 μl; 0.5% DMSO.

Regarding aphidicolin, the half-inhibitory concentration (IC50) in assay [1] was found to be 3100 nM; in assay [2], 900 nM.
